Source: patent publication US20080269298A1, “Benzimidazol-1-YL-thiophene compounds for the treatment of cancer” (priority 2002, published 2008)

Legend:
[1] = test system: colon (HCT116) tumor cell line; assay: Methylene Blue Growth Inhibition Assay, HCT116; type: cell-based; settings: Homo sapiens, HCT-116, 72 h; Cell Line HCT116, 3 days; read-out: MeB IC50
Summary of the method: (§1)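 Methylene blue dye retained by cells after a 3-day, 37° C compound incubation in DMEM/10% FBS (0.3% DMSO) served as the biomass readout at 620 nm. IC50 values were interpolated by nonlinear regression against vehicle wells.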

[2] = test system: lung (H460) tumor cell line; assay: Methylene Blue Growth Inhibition Assay, H460; type: cell-based; settings: Homo sapiens, NCI-H460, 72 h; Cell Line H460, 3 days; read-out: MeB IC50
Summary of the method: (§2)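 Cells were plated at line-specific densities (HFF 5,000, RKO 2,500, H460 2,000 cells/well) in DMEM with 10% FBS. Compound was added the next day (0.3% DMSO final) for 3 days at 37° C and 10% CO2. Biomass was read by methylene blue staining (OD 620) relative to vehicle, and IC50 was obtained by nonlinear regression.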

[3] = test system: colon (RKO) tumor cell line; assay: Methylene Blue Growth Inhibition Assay, RKO; type: cell-based; settings: Homo sapiens, 72 h, 3 days, read-out: MeB IC50
Summary of the method: as §2

[4] = test system: breast tumor (MCF7) cell line; assay: Methylene Blue Growth Inhibition Assay, MCF7; type: cell-based; settings: Homo sapiens, 72 h; Cell Line MCF7, 3 days; read-out: MeB IC50
Summary of the method: as §1

[5] = test system: prostate (PC3) tumor cell line; assay: Methylene Blue Growth Inhibition Assay, PC3; type: cell-based; settings: Homo sapiens, 72 h; Cell Line PC3, 3 days; read-out: MeB IC50
Summary of the method: as §1

A549 = assay: Methylene Blue Growth Inhibition Assay, A549; type: cell-based; settings: Homo sapiens; Cell Line A549; read-out: MeB IC50
[6] = test system: Normal Human foreskin fibroblasts (HFF); assay: Methylene Blue Growth Inhibition Assay, HFF; type: cell-based; settings: 72 h, Cell Line HFF, 3 days, read-out: MeB IC50
Summary of the method: as §2

PLK1 kinase domain = target: T1, PLK1 kinase domain (Homo sapiens, UniProt P53350); assay: Assay for Inhibition of PLK1 (SPA enzyme activity); type: biochemical; settings: 2 μM ATP, read-out: Ave pIC50 PLK Enzyme Inhibition (converted)
T1 construct: made in house; host or cells: baculovirus-infected T. ni insect cells
T1 sequence (P53350 21-346): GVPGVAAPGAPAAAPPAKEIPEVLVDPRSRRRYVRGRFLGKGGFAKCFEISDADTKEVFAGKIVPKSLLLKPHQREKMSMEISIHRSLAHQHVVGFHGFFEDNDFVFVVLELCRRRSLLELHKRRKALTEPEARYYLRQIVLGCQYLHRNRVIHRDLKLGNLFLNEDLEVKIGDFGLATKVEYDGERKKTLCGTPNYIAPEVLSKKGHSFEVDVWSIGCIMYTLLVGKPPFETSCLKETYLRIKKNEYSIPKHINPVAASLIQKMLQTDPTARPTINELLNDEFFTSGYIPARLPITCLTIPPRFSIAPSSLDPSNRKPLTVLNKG

Compound | IC50 [1] | IC50 [2] | IC50 [3] | IC50 [4] | IC50 [5] | IC50 (A549) | IC50 [6] | IC50 (PLK1 kinase domain)
COc1cc2ncn(-c3cc(OC(C)c4ccccc4Cl)c(C(N)=O)s3)c2cc1OC (stereo not drawn) [Example 126, 3-[1-(2-Chlorophenyl)ethoxy]-5-(5,6-dimethoxy-1H-benzimidazol-1-yl)thiophene-2-carboxamide] | < 1000 nM | < 1000 nM | < 1000 nM | 1000 to 10000 nM | 1000 to 10000 nM | < 1000 nM | < 1000 nM | 
COc1cc2ncn(-c3cc(OCc4ccccc4C(F)(F)F)c(C(N)=O)s3)c2cc1OCCN1CCN(C)CC1 [Example 136, 5-(5-(Methyloxy)-6-{[2-(4-methyl-1-piperazinyl)ethyl]oxy}-1H-benzimidazol-1-yl)-3-({[2-(trifluoromethyl)phenyl]methyl}oxy)-2-thiophenecarboxamide] | < 1000 nM | < 1000 nM | < 1000 nM | < 1000 nM | 1000 to 10000 nM |  | 1000 to 10000 nM | < 100 nM
COc1ccc(COc2cc(-n3cnc4cc(OC)c(OC)cc43)sc2C(N)=O)cc1 [Example 128, 5-(5,6-Dimethoxy-1H-benzimidazol-1-yl)-3-[(4-methoxybenzyl)oxy]thiophene-2-carboxamide] | > 10000 nM | 1000 to 10000 nM | 1000 to 10000 nM | 1000 to 10000 nM | > 10000 nM |  | > 10000 nM | 100 to 10000 nM
NC(=O)c1sc(-n2cnc3cc(F)c(OCCN4CCOCC4)cc32)cc1OCc1ccccc1C(F)(F)F [Example 140, 5-[5-Fluoro-6-(2-morpholin-4-ylethoxy)-1H-benzimidazol-1-yl]-3-{[2-(trifluoromethyl)benzyl]oxy}thiophene-2-carboxamide] | 1000 to 10000 nM | 1000 to 10000 nM | < 1000 nM | 1000 to 10000 nM | 1000 to 10000 nM |  | > 10000 nM | < 100 nM
Cc1ccccc1COc1cc(-n2cnc3cc(Cl)c(Cl)cc32)sc1C(=O)O [Example 66, 5-(5,6-Dichloro-1H-benzimidazol-1-yl)-3-[(2-methylbenzyl)oxy]-thiophene-2-carboxylic acid] | > 10000 nM | > 10000 nM | > 10000 nM | > 10000 nM | > 10000 nM |  | > 10000 nM | < 100 nM
NC(=O)c1sc(-n2cnc3ccc(OCCN4CCCC4)cc32)cc1OCc1ccccc1C(F)(F)F [Example 139, 5-[6-(2-Pyrrolidin-1-ylethoxy)-1H-benzimidazol-1-yl]-3-{[2-(trifluoromethyl)benzyl]oxy}thiophene-2-carboxamide] | 1000 to 10000 nM | 1000 to 10000 nM | < 1000 nM | 1000 to 10000 nM | 1000 to 10000 nM |  | > 10000 nM | < 100 nM
NC(=O)c1sc(-n2cnc3ccc(OCCN4CCOCC4)cc32)cc1OCc1ccccc1C(F)(F)F [Example 138, 5-[6-(2-Morpholin-4-ylethoxy)-1H-benzimidazol-1-yl]-3-{[2-(trifluoromethyl)benzyl]oxy}thiophene-2-carboxamide] | 1000 to 10000 nM | < 1000 nM | < 1000 nM | 1000 to 10000 nM | > 10000 nM |  | 1000 to 10000 nM | < 100 nM
NC(=O)c1sc(-n2cnc3ccccc32)cc1OCc1ccccc1[N+](=O)[O-] [Example 117, 5-(1H-Benzimidazol-1-yl)-3-[(2-nitrobenzyl)oxy]thiophene-2-carboxamide] | < 1000 nM | < 1000 nM | < 1000 nM | < 1000 nM | 1000 to 10000 nM |  | > 10000 nM | < 100 nM
C=Cc1ccccc1COc1cc(-n2cnc3cc(OC)c(OC)cc32)sc1C(N)=O [Example 103, 5-(5,6-Dimethoxy-1H-benzimidazol-1-yl)-3-[(2-vinylbenzyl)oxy]thiophene-2-carboxamide] | 1000 to 10000 nM | 1000 to 10000 nM | 1000 to 10000 nM | 1000 to 10000 nM | > 10000 nM |  | > 10000 nM | < 100 nM
